Data reported in patent US8754116B2, “Macrocyclic inhibitors of hepatitis C virus” (Janssen R&D Ireland, priority 2005, dated 2014).

Experiments:
[1] = tested on: HCV replicons (NS3-NS5B regions of HCV type 1b) in Huh-7 luc/neo (Huh-Luc) cells; test: Replicon assay (HCV RNA replication, luciferase read-out); format: cell-based; settings: Hepatitis C virus, Huh-7, 72 h, incubation of three days, luciferase activity
Description: The in vitro antiviral activity against HCV of the compounds of formula (I) was tested in a cellular HCV replicon system based on Lohmann et al. (1999) Science 285:110-113, with the further modifications described by Krieger et al. (2001) Journal of Virology 75: 4614-4624, which is further exemplified in the examples section. This model, while not a complete infection model for HCV, is widely accepted as the most robust and efficient model of autonomous HCV RNA replication currently available. […] It will be appreciated that it is important to distinguish between compounds that specifically interfere with HCV functions from those that exert cytotoxic or cytostatic effects in the HCV replicon model, and as a consequence cause a decrease in HCV RNA or linked reporter enzyme concentration. […]
The replicon cells were plated in 384 well plates in the presence of the test and control compounds which were added in various concentrations. Following an incubation of three days, HCV replication was measured by assaying luciferase activity (using standard luciferase assay substrates and reagents and a Perkin Elmer ViewLux™ ultraHTS microplate imager). […] The inhibitory activity of the compound on luciferase activity was monitored on the Huh-Luc cells, enabling a dose-response curve for each test compound.

HCV NS3/4A protease = HCV NS3/4A protease (Hepatitis C virus genotype 1a, UniProt P27958); test: Inhibition assay (enzymatic assay, depsipeptide substrate hydrolysis); format: biochemical; note: full-length NS3 protease 1 nM, 25 µM NS4A cofactor, 0.5 µM substrate
Chain of HCV NS3/4A protease (P27958 1027-1657): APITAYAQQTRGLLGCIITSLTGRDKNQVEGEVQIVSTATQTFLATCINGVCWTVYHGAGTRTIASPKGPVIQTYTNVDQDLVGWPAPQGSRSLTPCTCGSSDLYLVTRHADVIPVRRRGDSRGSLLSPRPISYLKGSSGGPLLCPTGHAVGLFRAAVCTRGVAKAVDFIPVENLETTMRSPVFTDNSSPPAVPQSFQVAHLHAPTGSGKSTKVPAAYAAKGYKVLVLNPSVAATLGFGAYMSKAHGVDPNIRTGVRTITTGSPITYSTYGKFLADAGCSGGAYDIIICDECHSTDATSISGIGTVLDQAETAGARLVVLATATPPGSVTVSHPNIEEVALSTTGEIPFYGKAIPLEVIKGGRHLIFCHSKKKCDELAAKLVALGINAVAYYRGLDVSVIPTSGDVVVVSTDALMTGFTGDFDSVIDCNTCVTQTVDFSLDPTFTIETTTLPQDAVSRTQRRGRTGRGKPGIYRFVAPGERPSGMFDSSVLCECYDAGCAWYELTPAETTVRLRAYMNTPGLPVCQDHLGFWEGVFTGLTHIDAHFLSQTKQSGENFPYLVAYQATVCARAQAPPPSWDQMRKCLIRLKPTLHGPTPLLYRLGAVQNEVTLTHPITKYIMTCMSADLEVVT
Description: [Landro, 1997 # Biochem 36 9340-9348]. […] The solutions were stored at −20° C. between measurements.
[Liu, 1999 Analytical Biochemistry 267 331-335].

Row | Structure (SMILES) | EC50 [1] [µM] | Ki (HCV NS3/4A protease) [nM]
1 | CN1CCCC/C=C\[C@@H]2C[C@@]2(C(=O)O)NC(=O)[C@@H]2C[C@@H](n3nnc(-c4ccccc4)n3)C[C@H]2C1=O [Compound 9, 17-(5-phenyltetrazol-2-yl)-13-methyl-2,14-dioxo-3,13-diazatricyclo[13.3.0.0^4,6]octadec-7-ene-4-carboxylic acid] | > 10 | > 1000
2 | CN1CCCC/C=C\[C@@H]2C[C@@]2(C(=O)NS(=O)(=O)C2CC2)NC(=O)[C@@H]2C[C@@H](n3nnc(-c4ccccc4)n3)C[C@H]2C1=O [Compound 10, N-[17-(5-phenyltetrazol-2-yl)-13-methyl-2,14-dioxo-3,13-diazatricyclo[13.3.0.0^4,6]octadec-7-ene-4-carbonyl](cyclopropyl)sulfonamide] | 3.43 | 30
